Columns and labels:
[1] = system: corneal epithelial (CorE) cells; assay: MTS cell viability assay in CorE cells; type: cell-based, human; settings: 48 h; isorhamnetin 30 μM, Triton X-100 0.01%
Method: (§1) Immortalized human CorE [47] and immortalized human ConjE (Innoprot, Bizkaia, Spain) cells were plated on 96-well microplates. After 24 h incubation, cells were treated with 30 μM isorhamnetin or 0.01% Triton X-100 and then they were incubated for two days. An equal amount of DMSO was added to the control. The culture medium and the compounds were changed every 12 h. To assess cell proliferation, after 48 h of incubation with the compound, the cells were reincubated with MTS for 1 h. The soluble formazan produced by cellular reduction of MTS was quantified by measuring the absorbance at 490 nm with Infinite M200 (Tecan, Grödig, Austria) microplate reader. MTS assay was done using CellTiter 96 AQueous One Solution Cell Proliferation Assay kit (Promega, Madison, WI, USA).

[2] = system: conjunctival epithelial (ConjE) cells; assay: MTS cell viability assay in ConjE cells; type: cell-based, human; settings: 48 h; isorhamnetin 30 μM, Triton X-100 0.01%
Method: as §1

CFTR = biological target: T1, CFTR (Mus musculus, UniProt P26361); assay: Open-circuit ocular surface potential difference (PD) in CD-1 mice; type: in vivo; settings: 20 μM CFTRinh-172
T1 construct: from tissue; host or cells: ocular surface of anesthetized CD-1 mice (in vivo)

CD-1 mice = assay: Tear volume by phenol red thread tear test in normal CD-1 mice; type: in vivo, mouse; settings: isorhamnetin 30 µM with CFTRinh-172 20 µM
Method: Tear volume was measured using phenol red threads (Zone-Quick, Oasis Medical, Glendora, CA, USA) by placing them in the lateral canthi of normal CD-1 or dry eye model-treated BL6 mice for 10 s using forceps. Tear volume was measured using a Vernier caliper as the length of thread wetting under a microscope. For normal CD-1 mice, serial measurements were done to evaluate compound pharmacodynamics compared to the vehicle after topical application of a single, 2.5-μL drop of compound formulations containing 20 μM forskolin, 30 μM isorhamnetin, or 20 μM CFTRinh-172 in PBS with 0.1% DMSO.

WT-CFTR = WT-CFTR (Homo sapiens, UniProt P13569); assay: Whole-cell patch clamp in CHO-K1 cells expressing WT-CFTR; type: cell-based; set-up: expressed in transfected cells; host or cells: CHO-K1; settings: 10 μM CFTRinh-172
Method: Whole-cell, patch clamp recordings were performed on CFTR-expressing CHO cells. The bath solution contained (in mM) 140 NMDG-Cl, 1 CaCl2, 1 MgCl2, 10 glucose, and 10 HEPES (pH 7.4). The pipette solution contained (in mM) 130 CsCl, 0.5 EGTA, 1 MgCl2, 1 Tris-ATP, and 10 HEPES (pH 7.2). […] Seal resistances were between 3 and 10 GΩ. After establishing the whole-cell configuration, CFTR was activated by forskolin and/or isorhamnetin. […] Recordings were made at room temperature using an Axopatch-200B (Axon Instruments, San Jose, CA, USA). Currents were digitized with a Digidata 1440A converter (Axon Instruments), filtered at 5 kHz, and sampled at 1 kHz.

T1 sequence (P26361 whole entry): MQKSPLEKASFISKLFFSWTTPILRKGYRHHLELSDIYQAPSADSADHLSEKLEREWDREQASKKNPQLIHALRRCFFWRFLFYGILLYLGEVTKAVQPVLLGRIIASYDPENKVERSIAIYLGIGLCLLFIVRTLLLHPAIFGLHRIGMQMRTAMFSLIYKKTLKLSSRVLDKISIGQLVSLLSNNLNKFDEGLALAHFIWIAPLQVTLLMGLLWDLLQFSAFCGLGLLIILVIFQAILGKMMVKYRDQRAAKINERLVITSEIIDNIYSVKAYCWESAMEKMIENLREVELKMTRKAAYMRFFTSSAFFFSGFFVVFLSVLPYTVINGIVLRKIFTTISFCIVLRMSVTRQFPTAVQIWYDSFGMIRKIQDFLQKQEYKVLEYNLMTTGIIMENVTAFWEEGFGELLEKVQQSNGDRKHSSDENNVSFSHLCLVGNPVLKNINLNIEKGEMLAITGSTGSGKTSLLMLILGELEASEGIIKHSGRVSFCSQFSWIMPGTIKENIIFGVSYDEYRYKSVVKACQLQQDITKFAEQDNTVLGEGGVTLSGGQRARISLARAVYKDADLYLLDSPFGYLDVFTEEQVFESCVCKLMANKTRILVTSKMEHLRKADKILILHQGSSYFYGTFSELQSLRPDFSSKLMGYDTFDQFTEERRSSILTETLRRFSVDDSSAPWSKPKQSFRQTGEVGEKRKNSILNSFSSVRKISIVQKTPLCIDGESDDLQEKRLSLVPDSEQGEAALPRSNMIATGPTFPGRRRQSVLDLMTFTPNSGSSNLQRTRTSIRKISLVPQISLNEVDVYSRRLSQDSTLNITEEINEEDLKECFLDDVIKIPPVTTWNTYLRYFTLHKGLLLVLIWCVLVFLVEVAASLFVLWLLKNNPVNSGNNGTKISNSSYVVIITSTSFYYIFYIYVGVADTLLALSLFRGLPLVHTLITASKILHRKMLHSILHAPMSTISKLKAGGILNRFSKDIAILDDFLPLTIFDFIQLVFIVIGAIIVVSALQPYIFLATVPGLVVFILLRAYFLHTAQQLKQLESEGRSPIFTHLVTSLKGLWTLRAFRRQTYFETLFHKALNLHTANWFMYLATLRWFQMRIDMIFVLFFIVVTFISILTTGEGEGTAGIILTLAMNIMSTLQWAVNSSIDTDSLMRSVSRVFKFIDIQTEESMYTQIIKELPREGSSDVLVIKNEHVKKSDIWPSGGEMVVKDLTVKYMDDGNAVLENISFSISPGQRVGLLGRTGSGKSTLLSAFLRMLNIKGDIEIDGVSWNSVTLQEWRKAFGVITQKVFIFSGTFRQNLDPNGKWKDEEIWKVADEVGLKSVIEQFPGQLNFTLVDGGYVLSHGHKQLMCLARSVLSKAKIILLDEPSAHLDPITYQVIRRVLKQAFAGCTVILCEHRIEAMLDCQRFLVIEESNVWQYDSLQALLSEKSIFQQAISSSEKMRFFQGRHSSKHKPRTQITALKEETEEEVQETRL
WT-CFTR, sequence (P13569 whole entry): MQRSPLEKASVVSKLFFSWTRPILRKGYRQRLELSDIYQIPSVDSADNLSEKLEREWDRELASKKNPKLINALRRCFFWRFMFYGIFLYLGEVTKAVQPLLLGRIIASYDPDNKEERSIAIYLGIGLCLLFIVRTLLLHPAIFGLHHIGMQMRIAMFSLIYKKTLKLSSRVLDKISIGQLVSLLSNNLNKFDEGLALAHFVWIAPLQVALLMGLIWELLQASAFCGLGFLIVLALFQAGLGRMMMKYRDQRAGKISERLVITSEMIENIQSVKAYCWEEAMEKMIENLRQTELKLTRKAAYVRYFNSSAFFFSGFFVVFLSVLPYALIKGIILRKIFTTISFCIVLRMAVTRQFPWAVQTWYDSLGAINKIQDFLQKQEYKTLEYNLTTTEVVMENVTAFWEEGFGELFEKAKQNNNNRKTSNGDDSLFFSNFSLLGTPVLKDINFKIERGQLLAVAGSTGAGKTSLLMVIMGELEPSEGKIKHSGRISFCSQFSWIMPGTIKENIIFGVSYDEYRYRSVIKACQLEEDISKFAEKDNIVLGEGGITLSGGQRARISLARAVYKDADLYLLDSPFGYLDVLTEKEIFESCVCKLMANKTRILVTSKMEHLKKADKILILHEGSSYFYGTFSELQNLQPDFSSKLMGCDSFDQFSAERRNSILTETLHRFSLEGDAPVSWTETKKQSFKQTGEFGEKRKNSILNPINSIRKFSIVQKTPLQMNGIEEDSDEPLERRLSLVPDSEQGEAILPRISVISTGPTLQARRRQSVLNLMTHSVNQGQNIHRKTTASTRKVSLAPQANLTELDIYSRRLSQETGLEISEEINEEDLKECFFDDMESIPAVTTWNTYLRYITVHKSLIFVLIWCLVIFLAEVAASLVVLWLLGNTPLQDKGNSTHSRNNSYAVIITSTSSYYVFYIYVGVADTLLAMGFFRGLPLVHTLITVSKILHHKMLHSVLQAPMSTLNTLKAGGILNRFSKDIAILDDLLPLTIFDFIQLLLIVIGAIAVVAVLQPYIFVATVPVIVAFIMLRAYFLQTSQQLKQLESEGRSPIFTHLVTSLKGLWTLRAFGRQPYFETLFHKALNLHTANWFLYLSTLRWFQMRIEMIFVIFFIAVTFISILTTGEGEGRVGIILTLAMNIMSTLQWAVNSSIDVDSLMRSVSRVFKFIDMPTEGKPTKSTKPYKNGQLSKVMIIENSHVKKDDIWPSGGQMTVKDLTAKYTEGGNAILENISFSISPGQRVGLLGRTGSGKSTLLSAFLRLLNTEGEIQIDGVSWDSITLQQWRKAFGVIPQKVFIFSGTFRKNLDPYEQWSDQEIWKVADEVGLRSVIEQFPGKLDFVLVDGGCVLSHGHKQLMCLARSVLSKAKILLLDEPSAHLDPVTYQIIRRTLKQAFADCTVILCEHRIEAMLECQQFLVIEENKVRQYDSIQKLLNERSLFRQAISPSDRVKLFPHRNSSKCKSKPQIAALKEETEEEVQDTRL

| isorhamnetin-induced hyperpolarization of ocular PD (CFTR) | block of isorhamnetin-induced CFTR Cl- currents (whole-cell) (WT-CFTR) | Compound | cell viability (MTS), CorE cells [1] | cell viability (MTS), ConjE cells [2] | isorhamnetin-increased tear volume (CD-1 mice) |
| --- | --- | --- | --- | --- | --- |
| – | – | Triton X-100 [reference compound] | markedly decreased cell viability | markedly decreased cell viability | – |
| inhibited | almost completely blocked | O=C(O)c1ccc(/C=C2\SC(=S)N(c3cccc(C(F)(F)F)c3)C2=O)cc1 [CFTRinh-172, reference compound] | – | – | completely suppressed |
